{
  "source": "the supplement of paper PMC11061612",
  "assay_in_all_cases": "Bliss excess, mean over the matrix (fraction); higher = more synergy",
  "key": {"[1]": {"tested_on": "HCC1500 (Breast Carcinoma)", "method_in_brief": "(§1)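 Bliss excess equals the observed combination effect minus the expected value EA + EB − EA·EB, where EA and EB are the effects of each agent alone. Combination Emax is the second-highest inhibition within the matrix. Inhibition was scaled from CellTiter-Glo 2.0 luminescence, with 0 set by vehicle wells and 1 by blank wells, after 72 hours of two-drug dosing of cells plated in 1536-well plates.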"}, "[2]": {"tested_on": "NCI-H1355 (Lung Adenocarcinoma)", "method_in_brief": "as §1"}, "[3]": {"tested_on": "Mo-T (Other Blood Carcinomas)", "method_in_brief": "as §1"}, "[4]": {"tested_on": "KMRC-1 (Kidney Carcinoma)", "method_in_brief": "as §1"}, "[5]": {"tested_on": "OACM5-1 (Esophageal Adenocarcinoma)", "method_in_brief": "as §1"}, "[6]": {"tested_on": "MOLT-4 (T-Lymphoblastic Leukemia)", "method_in_brief": "as §1"}, "[7]": {"tested_on": "NCI-H2122 (Lung Adenocarcinoma)", "method_in_brief": "as §1"}, "[8]": {"tested_on": "SKN (Other Solid Carcinomas)", "method_in_brief": "as §1"}, "[9]": {"tested_on": "HCC2998 (Colorectal Carcinoma)", "method_in_brief": "as §1"}, "[10]": {"tested_on": "G-401 (Other Solid Carcinomas)", "method_in_brief": "as §1"}, "[11]": {"tested_on": "A4-Fuk (B-Lymphoblastic Leukemia)", "method_in_brief": "as §1"}, "[12]": {"tested_on": "NCI-H522 (Lung Adenocarcinoma)", "method_in_brief": "as §1"}, "[13]": {"tested_on": "CADO-ES1 (Ewing's Sarcoma)", "method_in_brief": "as §1"}, "Hey (Ovarian Carcinoma)": {"tested_on": "Hey (Ovarian Carcinoma)", "method_in_brief": "as §1"}, "[14]": {"tested_on": "ALL-SIL (T-Lymphoblastic Leukemia)", "method_in_brief": "as §1"}, "[15]": {"tested_on": "NCI-H650 (Lung Adenocarcinoma)", "method_in_brief": "as §1"}, "[16]": {"tested_on": "MV-4-11 (Acute Myeloid Leukemia)", "method_in_brief": "as §1"}, "[17]": {"tested_on": "NCI-H1838 (Lung Adenocarcinoma)", "method_in_brief": "as §1"}, "[18]": {"tested_on": "ML-2 (Acute Myeloid Leukemia)", "method_in_brief": "as §1"}, "[19]": {"tested_on": "NCI-H1993 (Lung Adenocarcinoma)", "method_in_brief": "as §1"}},
  "data": [
    {"compound": "CC1(C)CCC(CN2CCN(c3ccc(C(=O)NS(=O)(=O)c4ccc(NCC5CCOCC5)c([N+](=O)[O-])c4)c(Oc4cnc5[nH]ccc5c4)c3)CC2)=C(c2ccc(Cl)cc2)C1", "note": "[Venetoclax] + Cc1cc2ncnn2cc1Nc1ncc2c(n1)n(C1CCOCC1)c(=O)n2C [AZD7648] (first compound max 1 µM, 7x7, partner max 10 µM)", "values": [
      {"measurement": "Bliss excess", "setting": "[1]", "value": 0.0586},
      {"measurement": "Bliss excess", "setting": "[2]", "value": -0.0124},
      {"measurement": "Bliss excess", "setting": "[3]", "value": 0.0426},
      {"measurement": "Bliss excess", "setting": "[4]", "value": -0.0514},
      {"measurement": "Bliss excess", "setting": "[5]", "value": -0.0269},
      {"measurement": "Bliss excess", "setting": "[6]", "value": 0.0142},
      {"measurement": "Bliss excess", "setting": "[7]", "value": 0.0311},
      {"measurement": "Bliss excess", "setting": "[8]", "value": -0.172},
      {"measurement": "Bliss excess", "setting": "[9]", "value": -0.0314},
      {"measurement": "Bliss excess", "setting": "[10]", "value": -0.061},
      {"measurement": "Bliss excess", "setting": "[11]", "value": -0.0185},
      {"measurement": "Bliss excess", "setting": "[12]", "value": -0.0232},
      {"measurement": "Bliss excess", "setting": "[13]", "value": -0.0223},
      {"measurement": "Bliss excess", "setting": "Hey (Ovarian Carcinoma)", "value": -0.0604},
      {"measurement": "Bliss excess", "setting": "[14]", "value": -0.0022},
      {"measurement": "Bliss excess", "setting": "[15]", "value": -0.0489},
      {"measurement": "Bliss excess", "setting": "[16]", "value": 0.0477},
      {"measurement": "Bliss excess", "setting": "[17]", "value": 0.0538},
      {"measurement": "Bliss excess", "setting": "[18]", "value": 0.0057},
      {"measurement": "Bliss excess", "setting": "[19]", "value": -0.0583}
    ]}
  ]
}
